Test [1] addresses human 20S proteasome T-L activity. The note with it: read-out: IC50 T-L; 2 nM 20S, 30 min at 37°C, 100 µM substrate.
Procedure: (§19) Proteasome activity assay. 2 nM of 20S proteasome was incubated with increasing concentrations
(§20) of inhibitor (ranging from 0.5 to 3 µM) for 30 min at 37°C in the assay buffer (50 mM HEPES,
(§21) 1mM EDTA, pH7.5) and, subsequently, 100 µM of AMC-labeled substrate peptide was added
(§22) Proteasome activity was monitored by measuring the AMC fluorescence
(§23) at 440 nm (excitation at 360nm) for 20 min, using a fluorescence plate reader (Multiskan, Thermo)
(§24) A minimum of three replicates were performed for each data point.
(§25) Fluorescent substrate cleavage by the 20S proteasome was linear during this incubation time frame.
(§26) Data are expressed as normalized percentages of residual activity considering the slope of the
(§27) control (fluorogenic peptide/proteasome in the absence of inhibitors) as 100% of proteasome
(§28) activity. Dose-response plots of the residual proteasome activity in the presence of increasing
(§29) concentration of inhibitor provides a quantitative estimate of its potency. The IC50 is defined as the
(§30) concentration of the inhibitor which causes 50% reduction of activity and it is thus calculated from […]
(§31) (normalized for the enzyme concentration, v/[Etot]) was measured as a function of substrate
(§32) concentration (between 6 µM and 100 µM) for each inhibitor concentration (I) and analyzed as a […]
(§33) evaluated by visual examination of the fitted curves, 95% confidence bounds for the fitted […]
Test [2] has as its target human 20S proteasome ChT-L activity. The note with it: read-out: IC50 ChT-L; 2 nM 20S, 30 min at 37°C, 100 µM substrate.
Procedure: as §19, §20, §21, §22, §23, §24, §25, §26, §27, §28, §29, §30, §31, §32, §33
Another test deals with T1, human 20S proteasome.
T1 construct: purchased Boston Biochem (Cambridge, MA, USA)
On the set-up: method as in PMID 22642538. As to conditions: cited from earlier work.

The target of test [3] is human 20S proteasome PGPH-L activity. The note with it: read-out: IC50 PGPH-L; 2 nM 20S, 30 min at 37°C, 100 µM substrate.
Procedure: as §19, §20, §21, §22, §23, §24, §25, §26, §27, §28, §29, §30, §31, §32, §33
The test system of test [4] is wild-type yeast 20S proteasome. The test can be described thus: Steady-state kinetic analysis (Lineweaver-Burk), Suc-LLVY-AMC. The test is classed as biochemical. The text has this:
(§1) Proteasome activity assay.
(§2) Latent Core Particles (CP).
(§3) in a 384 multiwell black plate.
(§4) The IC50 is defined as the
(§5) double-reciprocal Lineweaver-Burk plot
(§6) squares. […] The goodness of fit was
(§7) [Etot ] = KI ⋅ 1 + 1 (S3a)
(§8) or an un-competitive inhibition equation:
(§9) [Etot ] = Km ⋅ 1 + KI (S3b)
(§10) or else a mixed inhibition equation: […]
(§11) different affinity for the two forms.
(§12) Cooperativity for Porphyrin Binding.
(§13) be described by Eq. (1b) 2 where Pc

The next test deals with α-3ΔN yeast mutant 20S. The test is described as above. The test is classed as biochemical. The note with it: yeast mutant α-3ΔN (open conformation).
From the text: as §1, §2, §3, §4, §5, §6, §7, §8, §9, §10, §11, §12, §13

Test [5] deals with wild-type yeast 20S proteasome. Put plainly: UV stopped-flow binding kinetics. As to conditions: first cluster, 37 °C. An excerpt:
(§14) The analysis of kinetic progress curves, employing Eq. (S8), allows to obtain the values of k obs at different porphyrin concentrations, which can be exploited, for a classical bimolecular behavior, to obtain the association and dissociation rate constants according to Eq. (1a)1a kobs=kon⋅[Porph]+koff […]
(§15) Therefore, the classical bimolecular behavior, as from Eq. (1a), has been modified accordingly:1b kobs=(kc⋅Pc/Ptot+ko⋅Po/Ptot)⋅[Porph]+koff where k c and k o are the porphyrin binding rate constants to the 20S proteasome in the “closed” and in the “open” conformation, respectively, k off is the dissociation rate constant of the porphyrin, P c and P o are the relative percentage of the two conformations (“closed” and “open”, respectively) as a function of porphyrin concentration, as from Eqs. (S4–S7) (see SI). […]
(§16) Cooperativity for Porphyrin Binding. In the presence of (at least) two states (i.e., “open” and […]
(§17) corresponds to the population of “closed” 20S as a function of porphyrin concentration (with Kc being the porphyrin equilibrium binding constant for this conformation) and Po […]
(§18) Refers to the population of “open” 20S as a function of porphyrin concentration, Ko being the equilibrium porphyrin binding constant and L is the conformationa l equilibrium between the two states in the absence of porphyrins, as from Eq. (S6)

Test [6] relates to α-3ΔN mutant of yeast 20S proteasome. The test can be described thus: UV stopped-flow binding kinetics. The note with it: simple bimolecular binding, 37 °C.
From the text: as §14, §15, §16, §17, §18

Consider `C[n+]1ccc(-c2c3nc(c(-c4cc[n+](C)cc4)c4ccc([nH]4)c(-c4cc[n+](C)cc4)c4nc(c(-c5cc[n+](C)cc5)c5ccc2[nH]5)C=C4)C=C3)cc1` [compound 1, meso-tetrakis(4-N-methylpyridyl) porphyrin], for which the figures for the IC50 in test [1], in test [2] and in test [3] were 640 nM, 393 nM and 140 nM, respectively. For the same compound, the inhibition mechanism result in the test on human 20S proteasome is “competitive and reversible inhibitor”.
As for `C[n+]1ccc(-c2ccc(-c3c4nc(c(-c5ccc(-c6cc[n+](C)cc6)cc5)c5ccc([nH]5)c(-c5ccc(-c6cc[n+](C)cc6)cc5)c5nc(c(-c6ccc(-c7cc[n+](C)cc7)cc6)c6ccc3[nH]6)C=C5)C=C4)cc2)cc1` [compound 2, meso-tetrakis(4-N-methylphenylpyridyl)-porphyrin], in test [4], the inhibition mechanism result is “almost pure non-competitive”. The inhibition mechanism result in the test on α-3ΔN yeast mutant 20S was “competitive inhibitor”. Also, in test [5], the “L, open/closed conformational equilibrium in the absence of porphyrins” value is on record as 4.0 × 10^−6; the “kc, binding rate constant, closed conformation” value amounted to 130 M⁻¹ s⁻¹; the “ko, binding rate constant, open conformation” value was 7e+06 M⁻¹ s⁻¹. The “ko, binding rate constant” value in test [6] came out at 2.5e+06 M⁻¹ s⁻¹.

(Values after publication PMC5719074, “Electrostatic Map Of Proteasome α-Rings Encodes The Design of Allosteric Porphyrin-Based Inhibitors Able To Affect 20S Conformation By Cooperative Binding” (Scientific Reports, 2017).)
